Assay results as given in patent publication US8236789B2, “1-adamantyl azetidin-2-one derivatives and drugs containing same” (Kowa Company, Ltd., priority 2008, dated 2012).

Key:
human 11β-HSD1 = molecular target: T1, human 11β-HSD1 (Homo sapiens, UniProt P28845); assay: Enzyme inhibitory activity assay, lysate of HEK293 cells stably expressing human 11β-HSD1, cortisol by competitive ELISA; format: biochemical; conditions: Table 1; cell lysate, 100 nmol/L cortisone, NADPH, 37° C. 1 hour; read-out: in vitro assay (IC50 uM) h HSD1
T1 construct: expressed in transfected cells
Protocol: (§1) 1. Human 11β-HSD1-, Human 11β-HSD2- and Mouse 11β-HSD1-Gene Clonings and Establishment of Stably Expressing Cells
(§2) Human 11β-HSD1- and human 11β-HSD2-expressing vectors were transfected into human kidney-derived cell line, HEK293 cells, using a transfection reagent, jet PEI (Funakoshi). Mouse 11β-HSD1 was transfected to Chinese hamster ovary-derived cell line, CHO-K1 cells. Selection was conducted with 200-400 μg/mL of zeocine (Invitrogen) to provide stably expressing-cell clones. The stably expressing cells were suspended in buffer solution A (20 mmol/L Tris-HCl, pH 7.4, 250 mmol/L sucrose, 1 mmol/L EGTA, 1 mmol/L EDTA, 1 mmol/L MgCl2), sonicated, and then stored at −80° C.
(§3) 2. Assay of Enzyme Inhibitory Activity
(§4) An enzymatic reaction was conducted using a polystyrene 96-well plate. Each well was added with 1 μL of a test agent dissolved in DMSO and then diluted (0.003 to 3 mmol/L), and further added with 10 μL of cell lysate diluted to a concentration of 0.1 mg/mL to 0.4 mg/mL. Next, 90 μL of buffer solution A containing substrate (100 nmol/L cortisone or cortisol) and coenzyme (400 μmol/L NADPH or NAD+) was added and the mixture was incubated at 37° C. for 1 hour. The enzymatic reaction was stopped by treating at 95° C. for 3 minutes. Cortisol that was present in the reaction solution was determined by a competitive ELISA shown below.
(§5) Anti-rabbit IgG antibody (Chemi-con) diluted to 2 μg/mL with carbonate buffer solution (pH 9.6) was added in 100 μL each to a 96-well immuno plate (Nunc) and immobilized by an incubation at 4° C. overnight. […] After washed three times with buffer solution B containing 0.05% Tween 20, the plates were allowed to develop color by adding 100 μL, of color reagent, TMB (Moss). The color reaction was stopped by 25 μL of 1 mol/L sulfuric acid and the absorbance was determined at 450 nm with a microplate reader (Molecular Device, VersaMax).

mouse 11β-HSD1 = molecular target: T2, mouse 11β-HSD1 (Mus musculus, UniProt P50172); assay: Enzyme inhibitory activity assay, lysate of CHO-K1 cells stably expressing mouse 11β-HSD1, cortisol by competitive ELISA; format: biochemical; conditions: Table 2; cell lysate, 100 nmol/L cortisone, NADPH, 37° C. 1 hour; read-out: in vitro assay (IC50 uM) m HSD1
T2 construct: expressed in transfected cells
Protocol: as §1, §2, §3, §4, §5

T1 sequence (P28845 whole entry): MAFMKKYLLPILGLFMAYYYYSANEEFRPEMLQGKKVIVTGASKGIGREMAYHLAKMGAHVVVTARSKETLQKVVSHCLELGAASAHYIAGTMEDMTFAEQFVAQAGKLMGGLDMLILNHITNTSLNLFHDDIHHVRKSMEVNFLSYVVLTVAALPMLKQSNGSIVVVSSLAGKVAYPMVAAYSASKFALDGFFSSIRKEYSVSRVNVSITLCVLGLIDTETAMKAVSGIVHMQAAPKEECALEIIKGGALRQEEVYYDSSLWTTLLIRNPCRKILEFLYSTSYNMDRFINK
T2 sequence (P50172 whole entry): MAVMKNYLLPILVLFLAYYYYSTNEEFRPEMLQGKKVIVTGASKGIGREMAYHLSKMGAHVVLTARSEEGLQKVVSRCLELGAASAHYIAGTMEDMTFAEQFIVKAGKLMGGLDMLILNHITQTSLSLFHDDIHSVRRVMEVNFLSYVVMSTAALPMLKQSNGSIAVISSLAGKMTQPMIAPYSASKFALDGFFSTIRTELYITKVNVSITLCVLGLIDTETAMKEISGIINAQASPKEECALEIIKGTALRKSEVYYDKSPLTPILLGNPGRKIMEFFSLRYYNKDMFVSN

SMILES | IC50 (human 11β-HSD1) | IC50 (mouse 11β-HSD1)
CC1(C)C(=O)N([C@H]2C3CC4CC2C[C@](C(N)=O)(C4)C3)C1c1ccnc2ccccc12 (stereo partly drawn) [Example 51, trans-4-[2-(quinolin-4-yl)-3,3-dimethyl-4-oxoazetidin-1-yl]-1-adamantane carboxyamide] | 0.08 µM | 
CC1(C)C(=O)N([C@H]2C3CC4CC2C[C@](Cl)(C4)C3)C1c1cccc(Cl)c1Cl (stereo partly drawn) [Example 3, trans-1-(5-chloroadamantan-2-yl)-3,3-dimethyl-4-(2,3-dichlorophenyl)azetidin-2-one] | 0.057 µM | 0.31 µM
CC1(C)C(=O)N([C@H]2C3CC4CC2C[C@](Cl)(C4)C3)C1c1cccc2ccccc12 (stereo partly drawn) [Example 5, trans-1-(5-chloroadamantan-2-yl)-3,3-dimethyl-4-(naphthalen-1-yl)azetidin-2-one] | 0.88 µM | 0.66 µM
CC1(C)C(=O)N([C@H]2C3CC4CC2C[C@](O)(C4)C3)C1c1cccc(Cl)c1Cl (stereo partly drawn) [Example 46, trans-1-(5-hydroxyadamantan-2-yl)-3,3-dimethyl-4-(2,3-dichlorophenyl)azetidin-2-one] | 0.0081 µM | 0.029 µM
CC1(C)C(=O)N(C2C3CC4CC(C3)CC2C4)C1c1ccc(Br)cc1 (stereo not shown) [Example 43, 1-(adamantan-2-yl)-3,3-dimethyl-4-(4-bromophenyl)azetidin-2-one] | 0.025 µM | 
CC1(C)C(=O)N([C@H]2C3CC4CC2C[C@](O)(C4)C3)C1c1cccc2ccccc12 (stereo partly drawn) [Example 47, trans-1-(5-hydroxyadamantan-2-yl)-3,3-dimethyl-4-(naphthalen-1-yl)azetidin-2-one] | 0.0075 µM | 0.0056 µM
CC1(C)C(=O)N([C@H]2C3CC4CC2C[C@](C(N)=O)(C4)C3)C1c1cccc(Cl)c1Cl (stereo partly drawn) [Example 9, trans-4-[2-(2,3-dichlorophenyl)-3,3-dimethyl-4-oxoazetidin-1-yl]-1-adamantane carboxyamide] | 0.005 µM | 0.035 µM
COC(=O)[C@]12CC3CC(C1)[C@@H](N1C(=O)C(C)(C)C1c1cccc4cccnc14)C(C3)C2 (stereo partly drawn) [Example 18, methyl trans-4-[2-(quinolin-8-yl)-3,3-dimethyl-4-oxoazetidin-1-yl]-1-adamantane carboxylate] | 0.029 µM | 0.074 µM
CC1(C)C(=O)N(C2C3CC4CC(C3)CC2C4)C1c1cccc2c1OCC=CC2 (stereo not shown) [Example 67, 1-(adamantan-2-yl)-4-(2,5-dihydrobenzo[b]oxepin-9-yl)-3,3-dimethylazetidin-2-one] | 0.065 µM | 0.029 µM
COc1ccc(C2N([C@H]3C4CC5CC3C[C@](O)(C5)C4)C(=O)C2(C)C)c2ccccc12 (stereo partly drawn) [Example 48, trans-1-(5-hydroxyadamantan-2-yl)-3,3-dimethyl-4-(4-methoxynaphthalen-1-yl)azetidin-2-one] | 0.0088 µM | 0.33 µM
CC1(C)C(=O)N([C@H]2C3CC4CC2C[C@@](Cl)(C4)C3)C1c1cccc2ccccc12 (stereo partly drawn) [Example 6, cis-1-(5-chloroadamantan-2-yl)-3,3-dimethyl-4-(naphthalen-1-yl)azetidin-2-one] | 0.56 µM | 0.87 µM
COC(=O)[C@]12CC3CC(C1)[C@@H](N1C(=O)C(C)(C)C1c1ccnc4ccccc14)C(C3)C2 (stereo partly drawn) [Example 49, methyl trans-4-[2-(quinolin-4-yl)-3,3-dimethyl-4-oxoazetidin-1-yl]-1-adamantane carboxylate] | 0.1 µM | 
CC1(C)C(=O)N([C@H]2C3CC4CC2C[C@](C(N)=O)(C4)C3)C1c1cccc2ccccc12 (stereo partly drawn) [Example 12, trans-4-[2-(naphthalen-1-yl)-3,3-dimethyl-4-oxoazetidin-1-yl]-1-adamantane carboxyamide] | 0.022 µM | 0.023 µM
CC1(C)C(=O)N([C@H]2C3CC4CC2C[C@@](Cl)(C4)C3)C1c1cccc(Cl)c1Cl (stereo partly drawn) [Example 4, cis-1-(5-chloroadamantan-2-yl)-3,3-dimethyl-4-(2,3-dichlorophenyl)azetidin-2-one] | 0.046 µM | 0.34 µM
COC(=O)[C@]12CC3CC(C1)[C@@H](N1C(=O)C(C)(C)C1c1cccc4ccccc14)C(C3)C2 (stereo partly drawn) [Example 10, methyl trans-4-[2-(naphthalen-1-yl)-3,3-dimethyl-4-oxoazetidin-1-yl]-1-adamantane carboxylate] | 0.019 µM | 0.034 µM
CC1(C)C(=O)N([C@H]2C3CC4CC2C[C@](C(N)=O)(C4)C3)C1c1cccc2c1OCO2 (stereo partly drawn) [Example 15, trans-4-[2-(benzo[d][1,3]dioxol-4-yl)-3,3-dimethyl-4-oxoazetidin-1-yl]-1-adamantane carboxyamide] | 0.031 µM | 0.031 µM
CSc1ccc(C2N(C3C4CC5CC(C4)CC3C5)C(=O)C2(C)C)cc1 (stereo not shown) [Example 55, 1-(adamantan-2-yl)-3,3-dimethyl-4-[4-(methylthio)phenyl]azetidin-2-one] | 0.0039 µM | 0.87 µM
CC1(C)C(=O)N([C@H]2C3CC4CC2C[C@](C(N)=O)(C4)C3)C1c1cccc2cnccc12 (stereo partly drawn) [Example 16, trans-4-[2-(isoquinolin-5-yl)-3,3-dimethyl-4-oxoazetidin-1-yl]-1-adamantane carboxyamide] | 0.41 µM | 
CC1(C)C(=O)N(C2C3CC4CC(C3)CC2C4)C1c1ccc(OC(F)(F)F)cc1 (stereo not shown) [Example 42, 1-(adamantan-2-yl)-3,3-dimethyl-4-(4-trifluoromethoxyphenyl)azetidin-2-one] | 0.006 µM | 0.69 µM
CC1(C)C(=O)N(C2C3CC4CC(C3)CC2C4)C1c1cccc(C(F)(F)F)c1Cl (stereo not shown) [Example 30, 1-(adamantan-2-yl)-3,3-dimethyl-4-(2-chloro-3-trifluoromethylphenyl)azetidin-2-one] | 0.016 µM | 0.13 µM
CC1(C)C(=O)N(C2C3CC4CC(C3)CC2C4)C1c1cccc(Cl)c1Cl (stereo not shown) [Example 2, 1-(adamantan-2-yl)-3,3-dimethyl-4-(2,3-dichlorophenyl)azetidin-2-one] | 0.0054 µM | 0.054 µM
CC1(C)C(=O)N([C@H]2C3CC4CC2C[C@](C(=O)O)(C4)C3)C1c1cccc2ccccc12 (stereo partly drawn) [Example 11, trans-4-[2-(naphthalen-1-yl)-3,3-dimethyl-4-oxoazetidin-1-yl]-1-adamantane carboxylic acid] | 0.26 µM | 0.42 µM
CC1(C)C(=O)N(C2C3CC4CC(C3)CC2C4)C1c1cc(F)c(F)c(F)c1 (stereo not shown) [Example 36, 1-(adamantan-2-yl)-3,3-dimethyl-4-(3,4,5-trifluorophenyl)azetidin-2-one] | 0.091 µM | 
COC(=O)[C@]12CC3CC(C1)[C@@H](N1C(=O)C(C)(C)C1c1cccc4c1OCO4)C(C3)C2 (stereo partly drawn) [Example 13, methyl trans-4-[2-(benzo[d][1,3]dioxol-4-yl)-3,3-dimethyl-4-oxoazetidin-1-yl]-1-adamantane carboxylate] | 0.051 µM | 0.24 µM
CC1(C)C(=O)N(C2C3CC4CC(C3)CC2C4)C1c1cc(C(F)(F)F)cc(C(F)(F)F)c1 (stereo not shown) [Example 54, 1-(adamantan-2-yl)-3,3-dimethyl-4-[3,5-bis(trifluoromethyl)phenyl]azetidin-2-one] | 0.91 µM | 
CC1(C)C(=O)N(C2C3CC4CC(C3)CC2C4)C1c1cccc2ccccc12 (stereo not shown) [Example 45, 1-(adamantan-2-yl)-3,3-dimethyl-4-(naphthalen-1-yl)azetidin-2-one] | 0.0081 µM | 0.0035 µM
CC1(C)C(=O)N([C@H]2C3CC4CC2C[C@](C(N)=O)(C4)C3)C1c1cccc2cccnc12 (stereo partly drawn) [Example 20, trans-4-[2-(quinolin-8-yl)-3,3-dimethyl-4-oxoazetidin-1-yl]-1-adamantane carboxyamide] | 0.057 µM | 0.053 µM
COC(=O)[C@]12CC3CC(C1)[C@@H](N1C(=O)C(C)(C)C1c1cccc(Cl)c1Cl)C(C3)C2 (stereo partly drawn) [Example 7, methyl trans-4-[2-(2,3-dichlorophenyl)-3,3-dimethyl-4-oxoazetidin-1-yl]-1-adamantane carboxylate] | 0.013 µM | 0.25 µM
CC1(C)C(=O)N(C2C3CC4CC(C3)CC2C4)C1c1ccc(F)c(C(F)(F)F)c1 (stereo not shown) [Example 32, 1-(adamantan-2-yl)-3,3-dimethyl-4-(4-fluoro-3-trifluoromethylphenyl)azetidin-2-one] | 0.024 µM | 
CC1(C)C(=O)N([C@H]2C3CC4CC2C[C@](C(=O)O)(C4)C3)C1c1cccc(Cl)c1Cl (stereo partly drawn) [Example 8, trans-4-[2-(2,3-Dichlorophenyl)-3,3-dimethyl-4-oxoazetidin-1-yl]-1-adamantane carboxylic acid] | 0.066 µM | 
